Assay results from patent publication US10520493B2, “Method for assessment of neural function by establishing analysis module” (NATIONAL CHENG KUNG UNIVERSITY, priority 2015, dated 2019).

System: primarily cultured cortical neurons
Assay: High-content image analysis of the effect of chemotherapy drugs on primarily cultured neurons (neuron number, synaptic puncta number, neurite length)
Conditions: cells cultured for 10 days, drug added for 24 hours, FIG. 7-9; for neurotoxicity (effect on the neuron number, the synaptic puncta number and the neurite length): MAP2/synaptophysin/Hoechst staining
Experimental: To analyze neural function accurately, MetaXpress 3.1 software (“MetaXpress® Image Acquisition and Analysis Software (Analysis Guide)” was used on the website ftp://ftp.meta.moleculardevices.com/pub/uic/software/MX31R13/HelpDocs/MetaXpress/MetaXpress_3_1_Analysis_Guide.pdf) to design an analysis module. An automatic analysis was performed according to the following optimal indicators (a)˜(c) for image analysis with 32 steps.
The cultured cells including neurons and glial cells were firstly separated according to the area and the fluorescence intensity of the nucleus stained by Hoechst dye together with MAP2 antibody.
After neurons stained with MAP2 were selected, the area of neuronal cell body, the length and the number of processes and branches of the neurites were calculated to verify outgrowth of the neurites.
Numbers of synaptic puncta of the neurons were calculated according to the area of the neurites labeled with fluorescence mentioned above to verify formation of the synaptic puncta of the neurons.
Cerebral cortex was obtained from 0˜1 day old B6 mice pup and meninges were removed. DMEM/F12 medium without serum was used to triturate the cortex tissue. Then, the DMEM/F12 medium without serum was refilled to 5 mL, mixed evenly with 0.5 mL trypsin, and placed at 37° C. for 5 minutes. Then the mixture with 1 mL FBS was filtered through a cell strainer. After a centrifugation at 3,000 rpm for 10 min, the supernatant was removed and precipitated cells were added to a medium required for nerve cell culture. The medium was prepared by adding B-27® Supplement, 0.5 mM L-glutamine, and 0.5% penicillin streptomycin to Neurobasal® A medium.
(2) Black multi-well microplates with clear bottom were used for nerve cell culture. Each well was coated with 70 μL poly-D-lysine or poly-L-lysine. Cells were seeded in a density of 2.8×10^4/well. After cells were cultured for 10 days, chemotherapy drugs listed in the table 1 was respectively added to react with cells for 24 hours. Then cells were fixed with 4% polyformaldehyde for 10 min and washed with PBS twice for 5 min each. Then, each well was added with 1 M glycine reacting for 10 min and wash with PBS twice for 5 min each. After cells were added with 0.05% Triton X-100 reacting for 20 min and washed with PBS twice for 5 min each, cell were blocked with 4% BSA for 1 hour and then stained with primary antibodies including anti-MAP2 antibody (MyBioSource; MBS502140) and anti-synaptophysin antibody (Abcam; ab32127) for 12-16 hours. Next, cells were washed twice with PBST (10 min each) and incubated with fluorescence-conjugated secondary antibodies including Alexa Fluor 488 (Jackson ImmunoResearch; 703-546-155) and Alexa Fluor 647 (molecular probes; A31573) and Hoechst 33258 for 1 hour. At last, cells were washed twice with PBST (10 min each) and added with PBS for further image acquisition and analysis.
(3) Fluorescence microscopy system and method mentioned in the above embodiment were used to capture images at the wavelength of DAPI, FITC, and Cy5 for image analysis of the cultured cells. The images were enlarged 200 times (200×) and saved automatically after the shooting for analysis.

Row | SMILES | neurotoxicity compared with cisplatin (compared with cisplatin) | neurotoxicity (effect on the neuron number, the synaptic puncta number and the neurite length)
1 | N.N.O=C([O-])C1(C(=O)[O-])CCC1.[Pt+2] [carboplatin, Carboplatin] | less neurotoxicity | 
2 | CC[C@]1(O)C[C@H]2CN(CCc3c([nH]c4ccccc34)[C@@](C(=O)OC)(c3cc4c(cc3OC)N(C=O)[C@H]3[C@@](O)(C(=O)OC)[C@H](OC(C)=O)[C@]5(CC)C=CCN6CC[C@]43[C@@H]65)C2)C1 [vincristine, Vincristine] |  | severe neurotoxicity
3 | Nc1ccn([C@@H]2O[C@H](CO)[C@@H](O)C2(F)F)c(=O)n1 [Gemcitabine] |  | less neurotoxicity
4 | CC(=O)O[C@H]1C(=O)[C@@]2(C)[C@H]([C@H](OC(=O)c3ccccc3)[C@]3(O)C[C@H](OC(=O)[C@H](O)[C@@H](NC(=O)c4ccccc4)c4ccccc4)C(C)=C1C3(C)C)[C@]1(OC(C)=O)CO[C@@H]1C[C@@H]2O [paclitaxel, Paclitaxel] |  | severe neurotoxicity
5 | COc1cccc2c1C(=O)c1c(O)c3c(c(O)c1C2=O)C[C@@](O)(C(=O)CO)C[C@@H]3O[C@H]1C[C@H](N)[C@H](O)[C@H](C)O1 [doxorubicin, Doxorubicin] |  | less neurotoxicity
